Experiments:
[1] = entering the CNS / not entering the CNS; ref Drugbank [36]; cited from earlier work
[2] = HPLC on IAM (immobilized artificial membrane) column, retention factor; format: physicochemical; conditions: IAM.PC.DD.2 column; for k(IAM) retention factor: 10 mM phosphate buffer pH 7.4:acetonitrile 80:20; for logkIAM: logarithm of retention factor, phosphate buffer pH 7.4:acetonitrile 80:20
[3] = plasma protein binding, given as fraction; ref Drugbank; cited from earlier work
[4] = Normal-phase TLC on silica gel 60 F254 (Rf); format: physicochemical; conditions: water:methanol:acetonitrile 60:20:20, ammonium acetate pH 7.4
[5] = Reversed-phase TLC on RP-2 silanized plates (Rf); format: physicochemical; conditions: silica gel 60 RP-2 F254 silanized; water:methanol:acetonitrile 60:20:20, ammonium acetate pH 7.4

| SMILES | CNS+/- [1] | k(IAM) retention factor [2] | logkIAM [2] | PB (protein binding) [3] | NP (Rf from NP TLC plate) [4] | RP (Rf from RP-2 TLC plate) [5] |
| --- | --- | --- | --- | --- | --- | --- |
| CCOC(=O)[C@H](CCc1ccccc1)N[C@@H](C)C(=O)N1Cc2ccccc2C[C@H]1C(=O)O [quinapril] | 0 | 1.22 | 0.09 | 0.97 | 0.44 | 0.57 |
| Fc1ccc([C@@H]2CCNC[C@H]2COc2ccc3c(c2)OCO3)cc1 [paroxetine] | 1 | 115.77 | 2.06 | 0.94 | 0.55 | 0.6 |
| OCCOCCN1CCN(C(c2ccccc2)c2ccc(Cl)cc2)CC1 (stereo not drawn) [hydroxyzine] | 1 | 13.82 | 1.14 | 0.93 | 0.55 | – |
| NS(=O)(=O)c1cc(C2(O)NC(=O)c3ccccc32)ccc1Cl (stereo not drawn) [chlortalidone] | 1 | 1.32 | 0.12 | 0.75 | 0.96 | – |
| CCCCN1CCCCC1C(=O)Nc1c(C)cccc1C (stereo not drawn) [bupivacaine] | 1 | – | – | 0.95 | 0.67 | 0.74 |
| O=C(c1ccccc1)c1ccc2n1CCC2C(=O)O (stereo not drawn) [ketorolac] | 1 | – | – | 0.99 | 0.92 | 0.96 |
| CCC[C@@H]1C[C@@H](C(=O)N[C@@H]([C@H]2O[C@H](SC)[C@H](O)[C@@H](O)[C@H]2O)[C@@H](C)O)N(C)C1 [lincomycin] | 0 | – | – | 0.7 | 0.91 | – |
| COC(=O)[C@@H]1CC2=CC(=O)CC[C@]2(C)[C@@]23O[C@@H]2C[C@@]2(C)[C@@H](CC[C@@]24CCC(=O)O4)[C@H]13 [eplerenone] | 1 | 1.54 | 0.19 | 0.5 | 0.94 | 0.84 |
| Cc1ccc(-c2cc(C(F)(F)F)nn2-c2ccc(S(N)(=O)=O)cc2)cc1 [celecoxib] | 1 | 50.01 | 1.70 | 0.97 | 0.98 | 0.75 |
| O=C1Nc2ccc(Cl)cc2C(c2ccccc2Cl)=NC1O (stereo not drawn) [lorazepam] | 1 | 9.04 | 0.96 | 0.87 | – | – |
| Cc1ccc(S(=O)(=O)NC(=O)NN2CC3CCCC3C2)cc1 (stereo not drawn) [gliclazide] | 1 | 0.28 | -0.55 | 0.94 | 0.95 | 0.83 |
| COc1cc(N)c(Cl)cc1C(=O)NC1CCN(CCCOc2ccc(F)cc2)CC1OC (stereo not drawn) [cisapride] | 1 | 57.99 | 1.76 | 0.975 | 0.64 | 0.65 |
| CN1CCC(=C2c3ccccc3C=Cc3ccccc32)CC1 [cyproheptadine] | 1 | 23.79 | 1.38 | 0.975 | 0.45 | 0.45 |
| CN1C(=O)CC(=O)N(c2ccccc2)c2cc(Cl)ccc21 [clobazam] | 1 | 2.58 | 0.41 | 0.85 | 0.95 | 0.79 |
| CN1C(C(=O)Nc2ccccn2)=C(O)c2ccccc2S1(=O)=O [piroxicam] | 0 | 0.16 | -0.79 | 0.99 | 0.98 | 0.58 |
| COc1ccc(CCN2CCC(Nc3nc4ccccc4n3Cc3ccc(F)cc3)CC2)cc1 [astemizol] | 1 | 26.27 | 1.42 | 0.967 | 0.62 | 0.65 |
| COc1ccc2c(c1)c(CC(=O)O)c(C)n2C(=O)c1ccc(Cl)cc1 [indomethacin] | 1 | 1.08 | 0.03 | 0.97 | – | – |
| OCCN1CCN(CCC=C2c3ccccc3Sc3ccc(C(F)(F)F)cc32)CC1 [flupenthixol] | 1 | 51.21 | 1.71 | 0.95 | 0.51 | 0.66 |
| Nc1ccc(O)c(C(=O)O)c1 [mesalazine] | 0 | – | – | 0.43 | – | 0.99 |
| CN(C)CCCN1c2ccccc2Sc2ccccc21 [promazine] | 1 | 0.10 | -1.02 | 0.94 | 0.39 | 0.51 |
| CC(C)NCC(O)COc1ccc(COCCOC(C)C)cc1 (stereo not drawn) [bisoprolol] | 0 | 6.74 | 0.83 | 0.3 | 0.67 | 0.57 |
| COc1ccccc1OCCNCC(O)COc1cccc2[nH]c3ccccc3c12 (stereo not drawn) [carvedilol] | 0 | – | – | 0.98 | 0.73 | – |
| CC[C@H]1OC(=O)[C@H](C)[C@@H](O[C@H]2C[C@@](C)(OC)[C@@H](O)[C@H](C)O2)[C@H](C)[C@@H](O[C@@H]2O[C@H](C)C[C@H](N(C)C)[C@H]2O)[C@](C)(O)C[C@@H](C)CN(C)[C@H](C)[C@@H](O)[C@]1(C)O [azithromycin] | 0 | 0.06 | -1.20 | 0.29 | 0.63 | 0.24 |
| CCCC(CCC)C(=O)O [valproic acid] | 1 | 0.08 | -1.09 | 0.85 | 0.69 | 0.04 |
| NC(=O)N1c2ccccc2CC(=O)c2ccccc21 [oxcarbamazepine] | 1 | – | – | 0.4 | 0.91 | 0.91 |
| CCC(C)n1ncn(-c2ccc(N3CCN(c4ccc(OCC5COC(Cn6cncn6)(c6ccc(Cl)cc6Cl)O5)cc4)CC3)cc2)c1=O (stereo not drawn) [itraconazole] | 0 | – | – | 0.998 | 0.96 | 0.86 |
| CCOC(=O)C1=C(C)NC(C)=C(C(=O)OC)C1c1cccc([N+](=O)[O-])c1 (stereo not drawn) [nitrendipine] | 0 | – | – | 0.99 | 0.97 | 0.86 |
| CC[C@@H](C(N)=O)N1CCCC1=O [levetiracetam] | 1 | – | – | 0.1 | 0.92 | 0.92 |
| OCCN1CCN(CC/C=C2/c3ccccc3Sc3ccc(Cl)cc32)CC1 [zuclopenthixol] | 1 | 48.73 | 1.69 | 0.985 | 0.47 | – |
| CC(C)(C)NC[C@H](O)COc1nsnc1N1CCOCC1 [timolol] | 0 | – | – | 0.1 | 0.34 | 0.97 |
